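Protocol summary: plate cells (96-well), add compound at 5 concentrations, incubate 48 h, interpolate endpoints linearly. Here, GI50 denotes the concentration required for 50% inhibition of growth. TGI: total growth inhibition.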
How the values were obtained:
Experiment in all cases: NCI anticancer screen, dose series, 48 h
[1] = tested on: CCRF-CEM leukemia
[2] = tested on: SK-OV-3 ovarian
[3] = tested on: U251 CNS
[4] = tested on: EKVX NSCLC
[5] = tested on: COLO 205 colon
[6] = tested on: OVCAR-3 ovarian
[7] = tested on: SF-268 CNS
[8] = tested on: SR leukemia
[9] = tested on: HOP-92 NSCLC
[10] = tested on: HS 578T breast

Compound	TGI [1]	TGI [2]	TGI [3]	TGI [4]	TGI [5]	TGI [6]	TGI [7]	TGI [8]	TGI [9]	TGI [10]	GI50 [1]	GI50 [8]	GI50 [10]	GI50 [2]	GI50 [3]	GI50 [4]	GI50 [5]	GI50 [6]	GI50 [7]
c1ccc(OCCSCCCCCCCCCCSCCOc2ccccc2)cc1	> 100 µM	> 100 µM	> 100 µM	> 100 µM	> 100 µM	> 100 µM	> 100 µM												
CO[P@]1(=O)O[C@@H](c2ccccc2)[C@H](O)[C@@]1(O)c1ccccc1	> 100 µM	> 100 µM	> 100 µM	> 100 µM	> 100 µM	> 100 µM		> 100 µM	> 100 µM										
Cc1cc(S(=O)(=O)O)c(NC(=O)c2oc3cc(O)ccc3c(=O)c2C)cc1Cl		> 100 µM	> 100 µM	> 100 µM		> 100 µM	> 100 µM			> 100 µM									
O=S1(=O)OCCOS(=O)(=O)C1Cc1nc2ccccc2[nH]1	> 100 µM		> 100 µM	> 100 µM	> 100 µM	> 100 µM		> 100 µM	> 100 µM										
CC1(C)CCC2(C(=O)OC3OC(CO)C(O)C(O)C3O)CCC3(CO)C(=CCC4C5(C)CC(O)C(O)C(C)(C(=O)OC6OC(CO)C(O)C(O)C6O)C5CCC43C)C2C1 (stereo unspecified)		> 100 µM	> 100 µM	> 100 µM	> 100 µM	> 100 µM	> 100 µM	> 100 µM	> 100 µM	> 100 µM									
C=C1CC(Cn2cc(Br)c(=O)[nH]c2=O)(c2ccc(-c3ccccc3)cc2)OC1=O (stereo unspecified)	0.712 µM	15.9 µM	18.4 µM	7.42 µM	2.23 µM	2.98 µM	4.64 µM		0.113 µM	> 20.5 µM									
Oc1[nH]c2ccccc2c1/C=c1/cc2c(c(-c3ccc(C(F)(F)F)cc3)n1)=Nc1ccccc1-2	16.4 µM	56.6 µM	18.3 µM	> 100 µM	5.13 µM	7.69 µM	38.8 µM	11.3 µM		69.9 µM	3.06 µM	1.27 µM	10.3 µM	13.8 µM	4.46 µM	10.5 µM	1.95 µM	2.36 µM	10.3 µM
c1ccc([P+](c2ccccc2)(c2ccccc2)c2ccc([P+](c3ccccc3)(c3ccccc3)c3ccccc3)cc2)cc1	> 100 µM	> 100 µM	> 100 µM		50.8 µM	> 100 µM	> 100 µM	> 100 µM		> 100 µM									
Cc1ccc(S(=O)(=O)N/N=C2\C3CC4CC(C3)C2C4)cc1 (stereo unspecified)	> 100 µM	> 100 µM	> 100 µM		> 100 µM	> 100 µM		> 100 µM		> 100 µM									
CCOC(=O)CCCn1cc(C(=O)OC)nn1	> 100 µM		> 100 µM	> 100 µM	> 100 µM		> 100 µM		> 100 µM	> 100 µM									
Cc1cc(=O)[nH]c(NNC(C#N)c2ccc([N+](=O)[O-])cc2)n1 (stereo unspecified)	> 100 µM	> 100 µM	> 100 µM		> 100 µM	> 100 µM	> 100 µM	> 100 µM	> 100 µM										
CC/C(Cl)=N\OC(=O)Nc1ccc(F)cc1F	5.11 µM	37.4 µM	55.6 µM	20.3 µM	3.6 µM	31.9 µM	> 57.7 µM		4.34 µM	> 69.5 µM									
CC12CC(C/C1=N/O)C(C)(C)C2 (stereo unspecified)	> 100 µM	> 100 µM	> 100 µM	> 100 µM	> 100 µM	> 100 µM	> 100 µM		> 100 µM	> 100 µM									
[N-]=[N+]=C(C(=O)C(=[N+]=[N-])C(=O)c1ccccc1)C(=O)c1ccccc1				> 100 µM	> 100 µM	> 100 µM	> 100 µM			> 100 µM									
CC(C)(C)c1c(C(C)(C)C)c(=O)c1=O	> 100 µM	> 100 µM	> 100 µM	> 100 µM	> 100 µM	> 100 µM	> 100 µM		> 100 µM	> 100 µM									
Nc1c(N=Nc2ccc(-c3ccc(N=Nc4c(O)ccc5cc(S(=O)(=O)O)cc(S(=O)(=O)O)c45)cc3)cc2)c(S(=O)(=O)O)cc2cc(S(=O)(=O)O)c(N=Nc3ccccc3)c(O)c12	> 100 µM	> 100 µM	> 100 µM	> 100 µM	> 100 µM	> 100 µM	> 100 µM		> 100 µM										
COc1cccc(CN(C(=O)/C=C\Sc2ccccc2)C(C)(C)C)c1	> 100 µM	> 100 µM	> 100 µM	> 100 µM	> 100 µM	> 100 µM			70.8 µM										
N#CCCC1(CCC#N)CCCCCCC(CCC#N)(CCC#N)C(O)C1O (stereo unspecified)		> 100 µM	> 100 µM		> 100 µM	> 100 µM	> 100 µM	> 100 µM	> 100 µM										
CC(=O)Nc1ccc(C(=O)N2N=C(C)/C(=C/c3ccc(O)cc3)C2=O)cc1	> 100 µM		> 100 µM	> 100 µM	> 100 µM	> 100 µM	> 100 µM	> 100 µM											
OC12CCCCCC1(N1CCOCC1)c1ccccc12 (stereo unspecified)	> 100 µM	> 100 µM	> 100 µM		> 100 µM	> 100 µM	> 100 µM												
CC(=O)NC1=C(NCC(C)C)C(=O)c2ccccc2C1=O	28.4 µM	> 100 µM	> 100 µM	59.9 µM	> 100 µM	32.4 µM	46.3 µM		28.3 µM										
O=[N+]([O-])/C=C/c1cn(CCCCCn2cc(/C=C/[N+](=O)[O-])c3ccccc32)c2ccccc12		> 93.5 µM	3.89 µM	> 37.4 µM	> 46.1 µM	4.66 µM	15.6 µM	> 100 µM	67 µM	7.99 µM									
O=C1CSc2nnc(CCCCCCCCc3nnc4n3NC(=O)CS4)n2N1	51.1 µM	> 100 µM	> 100 µM	> 100 µM	> 100 µM	> 100 µM	> 100 µM	> 100 µM	> 100 µM										
COC(=O)n1c(C[P+](c2ccccc2)(c2ccccc2)c2ccccc2)cc2ccccc21	21.1 µM	3.59 µM	17.5 µM	11.1 µM	2.92 µM	11.2 µM	16.1 µM	25 µM	3.34 µM										
